Assay [1] concerns the target T1, Calpain-2 catalytic subunit (Sus scrofa, UniProt P43367).
T1 sequence (P43367 whole entry): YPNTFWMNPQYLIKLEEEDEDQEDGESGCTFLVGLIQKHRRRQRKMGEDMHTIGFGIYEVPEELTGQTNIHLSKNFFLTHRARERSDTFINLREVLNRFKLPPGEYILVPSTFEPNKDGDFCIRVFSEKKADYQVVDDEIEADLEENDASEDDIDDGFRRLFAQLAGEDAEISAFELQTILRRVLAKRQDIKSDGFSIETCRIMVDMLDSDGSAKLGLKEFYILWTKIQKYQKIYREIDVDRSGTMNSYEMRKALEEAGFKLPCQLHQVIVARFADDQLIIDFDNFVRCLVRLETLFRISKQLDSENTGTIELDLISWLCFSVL
Description: m-calpain protease blockers, concentration series – biochemical, fluorogenic peptide substrate, dose response (AID 1420). Type of assay: functional.

The target of another assay is Melanocortin receptor 4 (Homo sapiens, UniProt P32245). The assay is classed as functional, cell-based.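 Note: Cell-based assay with luminescence read-out, confirmatory dose-response testing for agonist activity of biased ligands at MC4R; human U2OS cells with tagged receptor and beta-arrestin; potency of agonists that increase receptor coupling to beta-arrestin.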
A further assay concerns the target Paired box protein Pax-8 (Homo sapiens, UniProt Q06710). Put plainly: PAX8 transcriptional activity inhibition in RMG-I – RMG-I cells, luciferase, cherry-pick, dose response (AID 687027).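 Note: luciferase reporter driven by Pax8 target thyroperoxidase promoter measured by SteadyGlo luminescence.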 The assay is classed as functional, cell-based.
Assay [2] concerns the target T2, Mitochondrial peptide methionine sulfoxide reductase (Bos taurus, UniProt P54149).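 Note: absorbance read-out, biochemical high-throughput dose-response screen for MsrA inhibitors, confirmatory; recombinant bovine MsrA coupled to E. coli TrxB with NADPH and selenocystamine; potency is for inhibitors of MsrA activity on DMSO substrate.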
T2 sequence (P54149 whole entry): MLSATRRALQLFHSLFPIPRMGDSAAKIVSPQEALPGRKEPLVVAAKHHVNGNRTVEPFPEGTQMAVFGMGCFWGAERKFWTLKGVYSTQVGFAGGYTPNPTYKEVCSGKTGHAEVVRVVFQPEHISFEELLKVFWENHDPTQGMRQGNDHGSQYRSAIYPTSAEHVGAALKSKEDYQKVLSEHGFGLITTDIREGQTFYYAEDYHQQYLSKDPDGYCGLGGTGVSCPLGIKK
The assay is classed as functional.

SMILES strings stand for the structures. Active and inactive are the calls of the source.

Melanocortin receptor 4, sequence (P32245 whole entry): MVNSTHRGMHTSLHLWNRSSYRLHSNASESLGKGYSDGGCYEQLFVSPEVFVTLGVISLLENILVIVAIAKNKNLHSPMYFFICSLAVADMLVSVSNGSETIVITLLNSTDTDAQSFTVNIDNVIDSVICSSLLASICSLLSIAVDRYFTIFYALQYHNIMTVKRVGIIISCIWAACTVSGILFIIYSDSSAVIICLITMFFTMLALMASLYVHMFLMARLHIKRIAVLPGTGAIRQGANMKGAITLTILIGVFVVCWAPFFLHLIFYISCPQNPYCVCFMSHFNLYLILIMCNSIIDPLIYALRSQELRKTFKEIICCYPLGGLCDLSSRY
Paired box protein Pax-8, sequence (Q06710 whole entry): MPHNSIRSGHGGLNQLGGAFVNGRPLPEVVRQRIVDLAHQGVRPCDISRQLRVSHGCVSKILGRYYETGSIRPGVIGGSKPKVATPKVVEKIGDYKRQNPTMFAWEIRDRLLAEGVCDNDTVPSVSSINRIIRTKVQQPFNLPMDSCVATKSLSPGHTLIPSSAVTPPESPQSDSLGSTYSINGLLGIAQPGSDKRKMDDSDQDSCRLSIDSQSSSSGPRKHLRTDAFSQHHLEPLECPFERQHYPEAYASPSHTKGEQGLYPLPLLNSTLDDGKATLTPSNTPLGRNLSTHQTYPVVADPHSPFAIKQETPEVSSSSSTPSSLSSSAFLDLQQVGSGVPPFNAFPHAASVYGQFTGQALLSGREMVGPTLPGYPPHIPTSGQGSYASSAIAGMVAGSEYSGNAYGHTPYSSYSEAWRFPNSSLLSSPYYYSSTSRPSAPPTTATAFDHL

In general, IC50 refers to the concentration that gives 50% inhibition. By EC50 is commonly meant the concentration that produces a half-maximal response. In the case of `Cc1cccc(C)c1-n1cccc1/C=C1\SC(=S)N(c2cccc(C(=O)O)c2)C1=O`, in assay [1], the IC50 is listed as 7.27 µM (not active). For the same compound, the EC50 at Melanocortin receptor 4 is > 89.2 µM (inactive).
As usually defined, the AC50 is the concentration at which the activity in the assay is half-maximal. With `COc1ccc(S(=O)(=O)/N=C2\C=C(Nc3ccc(O)cc3)C(=O)c3ccccc32)cc1`, at Paired box protein Pax-8, the AC50 is 1.86 µM (active). Also, the IC50 in assay [2] is 197 µM (inactive).
